For orientation: IC50 means the concentration that inhibits the measured activity by half. Broadly, the IC90 is the point of the concentration-response curve where the effect stands at 90%. Read a low IC90 as greater potency.

Drawing on PubChem BioAssay AID449762 (Southern Research Specialized Biocontainment Screening …, 2010), this text covers IC50 and IC90 for 28 compounds.

Records with an inconclusive call do not appear.

The assay deals with M. tuberculosis H37Rv growth inhibition, 7H9 media. Put plainly: M. tuberculosis growth inhibition, HTS (AID 449762).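 As to all read-outs here: bacterial growth assessed after seven days of incubation.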 The settings on record: for IC90: measured here: IC90 growth inhibition.

As for `COC(=O)c1ccc(-c2ncc(-c3cccc4ccccc34)o2)cc1`, the IC50 was 15.8 µM and the IC90 was found to be 52.7 µM.

On to `CN(C)CCOc1nc(-c2ccccc2)nc2c1oc1ccccc12`, for which the IC50 is 11.8 µM and the IC90 was determined as 16.3 µM.

For the compound `N#C/C(=C/c1ccc(Sc2nc3ccccc3[nH]2)o1)c1cccc(Br)c1`, the IC50 was 77.6 µM and the IC90 was > 100 µM.

Consider `CCN(CC)Cc1nc2c(c(=O)[nH]1)C(CC)(CC)Cc1ccccc1-2`, for which the IC50 is 4.46 µM and the IC90 was determined as 18.4 µM.

On to `Cc1ccc(C(=O)c2oc3ccc(Cl)cc3c2NC(=O)CN2CCN(C)CC2)cc1`, for which the IC50 was 14.6 µM and the IC90 was 17.8 µM.

In the case of `CCOc1ccc(-n2cc(-c3ccccc3)c3c(=O)[nH]cnc32)cc1`, the IC50 is 8.41 µM and the IC90 came to 27.5 µM.

For `CSc1ccccc1C(=O)NC1CCSc2ccccc21` (stereo unspecified), the IC50 was 9.3 µM and the concentration for an effect of 90% (IC90) was > 100 µM.

For the compound `Cc1cc(C=C2C(=O)NC(=S)NC2=O)c(C)n1C1CCCC1`, the IC50 was 10.9 µM and the concentration for an effect of 90% (IC90) worked out at 47.2 µM.

For the compound `Cc1ccc(C(=O)OCc2nnc(-c3ccccc3)o2)s1`, the IC50 is 19 µM and the IC90 came out at 33.5 µM.

With `CC(C)(C)c1ccc(-c2nc3[nH]c(=O)cc(NC(=O)c4ccco4)n3n2)cc1`, the IC50 is 74.4 µM and the IC90 was > 100 µM.

As for `Cc1cc(C)n2[nH]c(=O)c(N=Nc3cccc(C(F)(F)F)c3)c2n1`, the IC50 is 86.5 µM and the IC90 is > 100 µM.

Take `CCOC(=O)CSc1nnc(SCCN2C(=O)c3ccccc3C2=O)s1`: the IC50 is 4.3 µM and the IC90 amounted to 30 µM.

`CCCOc1ccc(N2CC(C(=O)Nc3ccccn3)CC2=O)cc1` (stereo unspecified): the concentration for half-maximal inhibition (IC50) was 16.3 µM and the IC90 amounted to 59.1 µM.

`CC1=NN(c2ccccc2)C(=O)C1C(=O)c1ccccc1` (stereo unspecified): the IC50 is 25.7 µM and the IC90 worked out at 53 µM.

`Oc1c(C(c2ccccc2Cl)N2CCCC2)ccc2cccnc12` (stereo unspecified): the IC50 was 14.1 µM and the IC90 came out at 31.1 µM.

As for `COc1ccc(-c2ccc(OC)c([C@H]3[C@@H]4C=CCC[C@@]4(C)C(=O)N3Cc3ccccc3)c2)cc1OC`, the IC50 is 13.1 µM and the IC90 worked out at 24.8 µM.

For the compound `CCOC(=O)COc1ccc(S(=O)(=O)NCCC2=CCCCC2)cc1`, the IC50 is 13.6 µM and the IC90 worked out at 27.6 µM.

Consider `O=S1(=O)N(CCN2CC=C(c3c[nH]c4cc(F)ccc34)CC2)c2cccc3c2N1CCC3`, for which the IC50 is 11.1 µM and the IC90 came out at 11.7 µM.

As for `CNC(=O)COC(=O)c1ccc(-c2nc3ccccc3s2)s1`, the IC50 was 2.07 µM and the IC90 was 23 µM.

Turning to `CCN1c2ccccc2N(C)C1(C)c1ccccc1` (stereo unspecified), the IC50 is 6 µM and the IC90 came to 6.79 µM.

As to `COc1cccc(NC(=S)/C(=C(\[O-])c2cc(C)n(-c3ccccc3F)c2C)[n+]2ccc(N(C)C)cc2)c1`, the IC50 was 55.9 µM and the IC90 worked out at 70.9 µM.

`C=CC[n+]1ccn(-c2nc3ccccc3nc2[N-]S(=O)(=O)c2cccs2)c1`: the IC50 was 25 µM and the IC90 worked out at 28.1 µM.

Consider `CN(C)N=Nc1nc[nH]c1C(N)=O`, for which the IC50 is 4.86 µM and the IC90 was determined as 6.76 µM.

`Cc1ccc(-c2c[n+](CC(=O)N3c4ccccc4Sc4ccccc43)c3n2CCC3)cc1`: the IC50 was 12.9 µM and the IC90 came out at 20.2 µM.

Turning to `COc1ccc(/C=N/Nc2nncn2N)cc1Br`, the IC50 is 10.8 µM and the IC90 came to 16.3 µM.

For the compound `NC1=NC[C@H](Cc2ccc(O)cc2)N1CCc1cccc2ccccc12`, the IC50 is 21.6 µM and the IC90 was determined as 24.1 µM.

Turning to `C[N+](C)(CCCCCC[N+](C)(C)CCCN1C(=O)c2cccc3cccc(c23)C1=O)CCCN1C(=O)c2cccc3cccc(c23)C1=O`, the IC50 was 2.59 µM and the IC90 amounted to 3.72 µM.

Turning to `Cc1nnc(-c2ccccc2)c(=O)n1/N=C/c1c(O)ccc2ccccc12`, the IC50 is 24.1 µM and the IC90 is 27.3 µM.
